Results on 17 compounds are retold here after patent publication US11147796B2, “Agent for preventing or ameliorating hearing impairment” (Tohoku University, priority 2017, dated 2021).

In turn, `O=C(CC(C(=O)O)c1c[nH]c2cccc(Cl)c12)c1ccc(F)cc1F` (centres unmarked) [Compound (2-1), 2-(4-chloro-1H-indol-3-yl)-4-(2,4-difluorophenyl)-4-oxo-butanoic Acid] showed a melting point of 203 to 204 °C. Next, `COc1cccc2c(C(CC(=O)c3ccc(F)cc3F)C(=O)O)c[nH]c12` (centres unmarked) [Compound (5-2), 4-(2,4-difluorophenyl)-2-(7-methoxy-1H-indol-3-yl)-4-oxo-butanoic Acid]: 181 to 183 °C.

In the case of `O=C(CC(C(=O)O)c1c[nH]c2ccc(Cl)cc12)c1ccc(F)cc1F` (centres unmarked) [Compound (3-2), 2-(5-chloro-1H-indol-3-yl)-4-(2,4-difluorophenyl)-4-oxo-butanoic Acid], the melting point was 236 to 239 °C. For `CCCn1cc(C(CC(=O)c2ccc(C)cc2C)C(=O)O)c2ccccc21` (centres unmarked) [compound 6, 4-(2,4-Dimethylphenyl)-2-(1-propyl-1H-indol-3-yl)-4-oxo-butanoic Acid] the value was 139 to 141 °C; for `CCOc1ccc2[nH]cc(CC(=O)O)c2c1` [compound #37, 5-Ethoxy-3-indoleacetic Acid], 86 to 92.7 °C.

`O=C(CC(C(=O)O)c1c[nH]c2ccccc12)c1ccccc1` (centres unmarked) [compound #20, 4-Phenyl-2-(1H-indol-3-yl)-4-oxo-butanoic Acid]: the melting point lay in the range of 149 to 150 °C. Compound `O=C(CC(C(=O)O)c1c[nH]c2cc(F)ccc12)c1ccc(F)cc1F` (centres unmarked) [Compound (4-1), 4-(2,4-difluorophenyl)-2-(6-fluoro-1H-indol-3-yl)-4-oxo-butanoic Acid] displayed a melting point of 210 to 214 °C. Next, `O=C(CC(C(=O)O)c1c[nH]c2c(Cl)cccc12)c1ccc(F)cc1F` (centres unmarked) [Compound (5-1), 2-(7-chloro-1H-indol-3-yl)-4-(2,4-difluorophenyl)-4-oxo-butanoic Acid]: 225 to 227 °C; `COc1ccc2[nH]cc(C(CC(=O)c3ccc(F)cc3F)C(=O)O)c2c1` (centres unmarked) [Compound (3-4), 4-(2,4-difluorophenyl)-2-(5-methoxy-1H-indol-3-yl)-4-oxo-butanoic Acid]: 205 to 206 °C; `CCCCOc1ccc2cccc(CC(=O)O)c2c1` [compound #33, α-(7-Butoxy-1-naphthalenyl)-acetic Acid]: 102 to 104 °C.

`O=C(CC(C(=O)O)c1c[nH]c2cc(OCc3ccccc3)ccc12)c1ccc(F)cc1F` (centres unmarked) [Compound (4-2), 2-(6-benzyloxy-1H-indol-3-yl)-4-(2,4-difluorophenyl)-4-oxo-butanoic Acid]: the melting point was 177 to 178 °C.

In turn, `CCCOc1ccc2[nH]cc(CC(=O)O)c2c1` [compound #38, 5-(1-Propoxy)-3-indoleacetic Acid] returned a melting point of 133.6 to 136.8 °C.

The compound `Cn1cc(C(CC(=O)c2ccc(F)cc2F)C(=O)O)c2ccccc21` (centres unmarked) [Compound (6-1), 4-(2,4-difluorophenyl)-2-(1-methyl-1H-indol-3-yl)-4-oxo-butanoic Acid] gave a melting point of 192 to 193 °C. For `O=C(CC(C(=O)O)c1c[nH]c2ccc(F)cc12)c1ccc(F)cc1F` (centres unmarked) [Compound (3-1), 4-(2,4-difluorophenyl)-2-(5-fluoro-1H-indol-3-yl)-4-oxo-butanoic Acid] the value was 207 to 208 °C.

`Cc1ccc2[nH]cc(C(CC(=O)c3ccc(F)cc3F)C(=O)O)c2c1` (centres unmarked) [Compound (3-3), 4-(2,4-difluorophenyl)-2-(5-methyl-1H-indol-3-yl)-4-oxo-butanoic Acid] yielded a melting point of 200 to 202 °C. The compound `CCCCOc1ccc2[nH]cc(CC(=O)O)c2c1` [compound #39, 5-(1-Butoxy)-3-indoleacetic Acid] gave a melting point of 137.8 to 141.1 °C.

In the case of `CCCCCOc1ccc2cccc(CC(=O)O)c2c1` [compound #34, α-(7-Pentoxy-1-naphthalenyl)-acetic Acid], the melting point is 104 to 106 °C.

A word on the melting point: it is the temperature, or range, at which the solid turns liquid.
